Data reported in ChEMBL document CHEMBL1143711, “Design, synthesis, and evaluation of potent, structurally novel peroxisome proliferator-activated receptor (PPAR) delta-selective agonists” (Bioorg Med Chem, 2007).

Legend:
[1] = biological target: T1, Peroxisome proliferator-activated receptor gamma (Homo sapiens, UniProt P37231); type: cell-based, HEK293
T1 sequence (P37231 whole entry): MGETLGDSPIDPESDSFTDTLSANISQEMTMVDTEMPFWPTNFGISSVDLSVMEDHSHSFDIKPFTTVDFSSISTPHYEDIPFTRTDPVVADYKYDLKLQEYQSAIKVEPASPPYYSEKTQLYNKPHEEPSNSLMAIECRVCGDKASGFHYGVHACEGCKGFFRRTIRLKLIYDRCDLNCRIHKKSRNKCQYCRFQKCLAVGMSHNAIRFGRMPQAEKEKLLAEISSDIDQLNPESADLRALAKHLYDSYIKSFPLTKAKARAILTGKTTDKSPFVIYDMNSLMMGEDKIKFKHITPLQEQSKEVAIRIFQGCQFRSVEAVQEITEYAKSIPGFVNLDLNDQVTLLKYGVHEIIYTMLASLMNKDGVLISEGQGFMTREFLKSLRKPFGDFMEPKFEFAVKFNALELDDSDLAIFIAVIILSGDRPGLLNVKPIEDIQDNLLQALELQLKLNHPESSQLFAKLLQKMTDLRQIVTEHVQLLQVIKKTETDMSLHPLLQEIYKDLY

[2] = biological target: T2, Peroxisome proliferator-activated receptor alpha (Homo sapiens, UniProt Q07869); test: Effect on PPARalpha transactivation activity in HEK293 cells; type: cell-based
T2 sequence (Q07869 whole entry): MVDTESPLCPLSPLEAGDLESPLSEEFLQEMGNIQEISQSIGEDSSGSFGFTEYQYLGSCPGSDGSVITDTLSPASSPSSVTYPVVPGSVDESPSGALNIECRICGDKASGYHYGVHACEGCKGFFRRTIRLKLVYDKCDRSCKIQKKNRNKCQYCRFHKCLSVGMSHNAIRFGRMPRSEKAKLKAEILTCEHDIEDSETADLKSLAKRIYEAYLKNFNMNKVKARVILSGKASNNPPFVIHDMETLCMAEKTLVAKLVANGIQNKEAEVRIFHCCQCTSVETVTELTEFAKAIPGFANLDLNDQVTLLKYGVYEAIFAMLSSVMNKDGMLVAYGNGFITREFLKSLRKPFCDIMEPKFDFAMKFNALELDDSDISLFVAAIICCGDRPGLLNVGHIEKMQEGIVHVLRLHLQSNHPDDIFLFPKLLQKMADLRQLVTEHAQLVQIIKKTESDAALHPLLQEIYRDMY

[3] = biological target: T3, Peroxisome proliferator-activated receptor delta (Homo sapiens, UniProt Q03181)
T3 sequence (Q03181 whole entry): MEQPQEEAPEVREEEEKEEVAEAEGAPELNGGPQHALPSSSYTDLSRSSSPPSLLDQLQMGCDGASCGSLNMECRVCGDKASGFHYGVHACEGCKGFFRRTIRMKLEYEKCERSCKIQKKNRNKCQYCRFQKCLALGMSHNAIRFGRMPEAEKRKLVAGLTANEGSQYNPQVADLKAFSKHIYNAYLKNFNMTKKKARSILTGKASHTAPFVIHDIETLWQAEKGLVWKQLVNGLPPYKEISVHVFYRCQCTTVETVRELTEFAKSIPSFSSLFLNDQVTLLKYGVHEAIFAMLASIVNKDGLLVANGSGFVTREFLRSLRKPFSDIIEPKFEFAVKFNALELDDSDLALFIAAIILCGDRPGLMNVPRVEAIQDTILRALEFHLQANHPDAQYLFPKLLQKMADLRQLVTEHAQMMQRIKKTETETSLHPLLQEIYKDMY

Row | Compound | EC50 [1] [µM] | EC50 [2] [µM] | EC50 [3] [µM]
1 | COc1ccc(CC(C)C(=O)O)cc1CNC(=O)c1ccc(C(F)(F)F)cc1 (stereo not given) | > 10 |  | 
2 | COc1ccc(CCC(=O)O)cc1CNC(=O)c1ccc(C(F)(F)F)cc1 | > 10 |  | 
3 | CCC(Cc1ccc(OCc2ccccc2)c(CNC(=O)c2ccc(C(F)(F)F)cc2)c1)C(=O)O (stereo not given) |  | > 10 | 
4 | CCCCOc1ccc(C[C@@H](CC)C(=O)O)cc1CNC(=O)c1ccc(C(F)(F)F)cc1F | 7 |  | 0.0083
